Data published in patent US9078440B2, “6-(2-aminophenyl)picolinates and their use as herbicides” (BAYER INTELLECTUAL PROPERTY GMBH, priority 2010, dated 2015).

Assays:
Format in all cases: in vivo
Amaranthus retroflexus [1] = assay: Post-emergence herbicidal effect, greenhouse pot test; conditions: 1.28 kg or less active substance per hectare, scored visually after about 3 weeks
Experimental: (§1) Post-emergence herbicidal effect and crop plant compatibility
(§2) Seeds of monocotyledonous and dicotyledonous weed and crop plants are placed in sandy loam in wood-fibre pots, covered with soil and cultivated in a greenhouse under good growth conditions. 2 to 3 weeks after sowing, the test plants are treated at the one-leaf stage. The inventive compounds, formulated in the form of wettable powders (WP) or as emulsion concentrates (EC), are then sprayed onto the green parts of the plants as an aqueous suspension or emulsion at a water application rate of 600 to 800 I/ha (converted) with addition of 0.2% by weight of wetting agent. After the test plants have been left to stand in the greenhouse under optimal growth conditions for about 3 weeks, the action of the formulations is scored visually in comparison to untreated controls (herbicidal action in percent (%): 100% action=the plants have died, 0% action=like control plants).

Matricaria inodora = assay: as above; conditions: 1.28 kg or less active substance per hectare, scored visually after about 3 weeks
Experimental: as §1, §2

[2] = system: Pharbitis (Ipomoea) purpurea; assay: as above; conditions: 1.28 kg or less active substance per hectare, scored visually after about 3 weeks
Experimental: as §1, §2

[3] = system: Polygonum (Fallopia) convolvulus; assay: as above; conditions: 1.28 kg or less active substance per hectare, scored visually after about 3 weeks
Experimental: as §1, §2

Stellaria media = assay: as above; conditions: 1.28 kg or less active substance per hectare, scored visually after about 3 weeks
Experimental: as §1, §2

Veronica persica = assay: as above; conditions: 1.28 kg or less active substance per hectare, scored visually after about 3 weeks
Experimental: as §1, §2

Viola tricolor [4] = assay: as above; conditions: 1.28 kg or less active substance per hectare, scored visually after about 3 weeks
Experimental: as §1, §2

Amaranthus retroflexus [5] = assay: Pre-emergence herbicidal effect, greenhouse pot test; conditions: 1.28 kg of active substance per hectare, assessed visually after 3 weeks
From the text: (§3) Pre-emergence Herbicidal Effect and Crop Plant Compatibility
(§4) Seeds of monocotyledonous and dicotyledonous weed plants and crop plants are placed in wood-fibre pots in sandy loam and covered with soil. The inventive compounds, formulated in the form of wettable powders (WP) or as emulsion concentrates (EC), are then applied to the surface of the covering soil as an aqueous suspension or emulsion at a water application rate of 600 to 800 I/ha (converted) with addition of 0.2% wetting agent. After the treatment, the pots are placed in a greenhouse and kept under good growth conditions for the test plants. The damage to the test plants is assessed visually after a test period of 3 weeks by comparison with untreated controls (herbicidal activity in percent (%): 100% action=the plants have died, 0% action=like control plants).

[6] = system: Polygonum (Fallopia) convolvulus; assay: as above; conditions: 1.28 kg of active substance per hectare, assessed visually after 3 weeks
From the text: as §3, §4

Viola tricolor [7] = assay: as above; conditions: 1.28 kg of active substance per hectare, assessed visually after 3 weeks
From the text: as §3, §4

Measured: herbicidal action

COC(=O)c1nc(-c2ccc(Cl)cc2N)cc(N)c1Cl [compound 58, methyl 4-amino-6-(2-amino-4-chlorophenyl)-3-chloropyridine-2-carboxylate]
at least 90%: all assays above
